Data on 4 compounds can be found in US10913787B2, “Method of identifying musk compounds” (Firmenich SA, priority 2015, dated 2021).

The subject of one assay is mouse Olfr96. Nature of the assay: cell-based cAMP HTRF dose-response assay, tagged mouse Olfr96 in HEK293T cells. An excerpt: (§1) In a further embodiment, to complete the deorphanization process, the candidate OR genes are further expressed in vitro for confirmation of activity against the compounds used to isolate the olfactory sensory neurons and other structurally-related compounds of interest. The mouse receptors identified from isolated olfactory neurons that respond to both Musk compounds are modified at their N-terminus with short polypeptide sequences (e.g., Flag (SEQ ID NO: 6), Rho (SEQ ID NO: 8; 20 first amino acids of the bovine rhodopsin receptor), or Lucy (SEQ ID NO: 10) tags), transiently expressed in HEK 293T cells, and stimulated separately with Musk compounds to confirm their identity as bona fide Musk compound receptors. Co-expression of the human G alpha subunit Gαolf in this cell-based assay activates the Gs transduction pathway that leads to an internal cAMP increase upon binding to the appropriate ligand. Alternatively, co-expression of the human G alpha subunit Gals in the cell based assay activates the Gq transduction pathway that leads to an internal Ca^2+ increase upon binding to the appropriate ligand. The above process and the results obtained so far serve to validate the process for rapid and reliable identification of mammalian odorant receptors for Musk compounds.
Functional dose-response experiments were performed to evaluate the level of functional activity of the modified cell line. Using a cell-based assay, mouse Olfr96 was tested in an HEK293T cell line wherein the endogenous RTP1 gene has been activated and the odorant receptor chaperone was expressed. Flag-Rho-tagged receptor genes were co-transfected with the olfactory canonical G-protein Goff gene and were exposed to increasing concentrations of the Musk odorants Tonalide, Vulcanolide, and Muscone. Odorant-induced activity was detected by measuring the cAMP increase in the cytosol using an HTRF based kit (CisBio, cAMP dynamic 2 kit, 62AM4PEJ). […] In an additional repeat experiment using the same conditions, mouse Olfr96 and corresponding human ortholog OR11A1 were tested side by side in duplicate with a musk diversity set for specificity assessment.

For the next assay, the target named is T1, human ortholog OR11A1 (Homo sapiens, UniProt Q9GZK7).
T1 construct: expressed in transfected cells
T1 sequence (Q9GZK7 1-315): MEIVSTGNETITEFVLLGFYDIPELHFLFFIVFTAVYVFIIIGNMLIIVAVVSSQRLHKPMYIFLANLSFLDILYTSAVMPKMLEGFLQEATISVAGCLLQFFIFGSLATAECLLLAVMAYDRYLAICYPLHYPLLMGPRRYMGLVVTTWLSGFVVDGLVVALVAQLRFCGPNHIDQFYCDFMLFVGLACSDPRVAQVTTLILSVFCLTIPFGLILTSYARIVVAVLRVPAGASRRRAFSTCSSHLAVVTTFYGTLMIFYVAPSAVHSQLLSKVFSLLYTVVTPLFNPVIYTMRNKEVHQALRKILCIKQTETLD
Nature of the assay: cell-based cAMP HTRF dose-response assay, tagged human OR11A1 in HEK293T cells. The conditions noted are these: Lucy-Flag-Rho-tagged receptor, in duplicate, musk diversity set, FIG. 3.
Excerpt: as §1, with “The above process and the results obtained so far serve to validate the process for rapid and reliable identification of mammalian odorant receptors for Musk compounds.” left out
Functional dose-response experiments were performed to evaluate the level of functional activity of the modified cell line. […] Odorant-induced activity was detected by measuring the cAMP increase in the cytosol using an HTRF based kit (CisBio, cAMP dynamic 2 kit, 62AM4PEJ). […]
Background: In TR-FRET formats the signal depends on donor and acceptor labels being close together.

Setting [1] is: repeat experiment, Lucy-Flag-Rho-tagged receptor, HEK293T, in duplicate, musk diversity set, FIG. 3.
The mark [2] stands for this setting: Flag-Rho-tagged receptor, HEK293T with activated RTP1, increasing concentrations of odorant, FIG. 2.

Each structure is given as a SMILES string.

Take `CC1C(C)(C)C2=C(C(=O)CCC2)C1(C)C` (stereo not shown) [Cashmeran]: the “dose-dependent increase of Olfr96 receptor activity (cAMP increase in the cytosol)” value in the assay with mouse Olfr96 (setting [1]) is reported as “dose-dependent increase”.

With `Cc1c([N+](=O)[O-])c(C)c([N+](=O)[O-])c(C(C)(C)C)c1[N+](=O)[O-]` [Musk X], the “dose-dependent increase of Olfr96 receptor activity (cAMP increase in the cytosol)” value with mouse Olfr96 (setting [1]) is reported as “dose-dependent increase”.

As to `CC(=O)c1cc2c(cc1C)C(C)(C)C(C)CC2(C)C` (stereo not shown) [Tonalide], the “dose-dependent increase of Olfr96 receptor activity (cAMP increase in the cytosol)” value with mouse Olfr96 (setting [2]) and with mouse Olfr96 (setting [1]) was “dose-dependent increase” throughout.

For the compound `Cc1cc2c(cc1C=O)C(C)(C)[C@@H](C)[C@H](C)C2(C)C` [Vulcanolide], at human ortholog OR11A1, the “dose-dependent increase of OR11A1 receptor activity (cAMP increase in the cytosol)” value is on record as “dose-dependent increase”. Also, the “dose-dependent increase of Olfr96 receptor activity (cAMP increase in the cytosol)” value in the assay with mouse Olfr96 (setting [2]) and in the assay with mouse Olfr96 (setting [1]) was “dose-dependent increase” throughout.
